Key:
Assay in all cases: relative viability (nuclei count vs DMSO), 5 days (fraction); higher = more cells survive
[1] = compound: CC1=CC=C(C=C1)C(=O)CN2C3=C(CCCC3)SC2=N [Pifithrin_alpha] + CS(=O)(=O)N1CCN(Cc2cc3nc(-c4cccc5[nH]ncc45)nc(N4CCOCC4)c3s2)CC1 [Pictilisib] (partner 1 µM)
In short: (§1)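 A single step with final 0.05% Triton X-100, 1% formaldehyde and 1 ug/ml Hoechst fixed the cells and stained nuclei 5 days after treatment. Lung cancer cell lines in 1536-well plates had been treated by pin tool the day after seeding with one drug alone or a fixed anchor-drug dose plus five library-drug doses (not always all listed) in √10 steps, and nuclei were counted on 4× images. Relative viability is the ratio of nuclei in treated wells to nuclei in vehicle wells, taken as the median of duplicate plates.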

Bemcentinib + Crizotinib = compound: Nc1nc(Nc2ccc3c(c2)CC[C@@H](N2CCCC2)CC3)nn1-c1cc2c(nn1)-c1ccccc1CCC2 [Bemcentinib] + C[C@@H](Oc1cc(-c2cnn(C3CCNCC3)c2)cnc1N)c1c(Cl)ccc(F)c1Cl [Crizotinib] (partner 1 µM)
In short: as §1

Axitinib + Olaparib = compound: CNC(=O)c1ccccc1Sc1ccc2c(/C=C/c3ccccn3)n[nH]c2c1 [Axitinib] + O=C(c1cc(Cc2n[nH]c(=O)c3ccccc23)ccc1F)N1CCN(C(=O)C2CC2)CC1 [Olaparib] (partner 8 µM)
In short: as §1

Axitinib + Phenformin = compound: CNC(=O)c1ccccc1Sc1ccc2c(/C=C/c3ccccn3)n[nH]c2c1 [Axitinib] + N=C(N)NC(=N)NCCc1ccccc1 [Phenformin] (partner 250 µM)
In short: as §1

Cell Line | relative viability ([1]; first compound 3.162 µM) | relative viability ([1]; first compound 10 µM) | relative viability ([1]; first compound 100 µM) | relative viability (Bemcentinib + Crizotinib; first compound 0.04 µM) | relative viability (Bemcentinib + Crizotinib; first compound 0.1265 µM) | relative viability (Bemcentinib + Crizotinib; first compound 1.265 µM) | relative viability (Bemcentinib + Crizotinib; first compound 4 µM) | relative viability (Axitinib + Olaparib; first compound 0.005 µM) | relative viability (Axitinib + Olaparib; first compound 0.01581 µM) | relative viability (Axitinib + Olaparib; first compound 0.05 µM) | relative viability (Axitinib + Olaparib; first compound 0.1581 µM) | relative viability (Axitinib + Olaparib; first compound 0.5 µM) | relative viability (Axitinib + Phenformin; first compound 0.005 µM) | relative viability (Axitinib + Phenformin; first compound 0.01581 µM) | relative viability (Axitinib + Phenformin; first compound 0.05 µM) | relative viability (Axitinib + Phenformin; first compound 0.1581 µM) | relative viability (Axitinib + Phenformin; first compound 0.5 µM) | relative viability ([1]; first compound 1 µM) | relative viability ([1]; first compound 31.62 µM) | relative viability (Bemcentinib + Crizotinib; first compound 0.4 µM)
LCLC-97TM1 | 0.179 | 0.224 | 0.229 | 0.267 | 0.475 | 0.376 | 0.259 | 0.433 | 0.436 | 0.446 | 0.37 | 0.496 | 0.458 | 0.381 | 0.43 | 0.47 | 0.314 |  |  | 
LCLC-103H | 0.531 | 0.566 | 0.567 | 1.05 | 1.11 | 1.13 | 1.11 | 0.803 | 0.784 | 0.753 | 0.881 | 0.824 | 0.32 | 0.341 | 0.345 | 0.356 | 0.312 | 0.53 | 0.551 | 1.04
LK-2 | 0.599 | 0.589 | 0.62 | 0.217 | 0.186 | 0.224 | 0.234 | 0.65 | 0.609 | 0.762 | 0.712 | 0.545 | 0.674 | 0.202 | 0.481 | 0.353 | 0.293 | 0.631 |  | 0.252
NCI-H522 |  |  |  |  |  |  |  | 0.61 | 0.639 | 0.641 | 0.562 | 0.748 | 0.537 | 0.669 | 0.698 | 0.555 | 0.658 |  |  | 
NCI-H1299 | 0.827 | 0.919 | 0.762 | 0.963 | 0.967 | 0.937 | 0.942 | 0.983 | 0.944 | 0.976 | 0.983 | 0.975 |  |  |  |  |  | 0.797 | 0.452 | 1.02
NCI-H1395 | 0.553 | 0.562 | 0.484 |  |  |  |  | 0.51 | 0.446 | 0.432 | 0.435 | 0.545 | 0.485 | 0.382 | 0.465 | 0.441 | 0.45 |  | 0.465 | 
NCI-H1563 | 0.688 | 0.61 | 0.705 | 0.79 | 0.759 | 0.849 | 0.89 |  |  |  |  |  | 0.778 | 0.654 | 0.625 | 0.616 | 0.667 | 0.53 | 0.65 | 0.81
NCI-H1623 |  |  |  |  |  |  |  |  |  |  |  |  | 0.669 | 0.585 | 0.315 | 0.613 | 0.6 |  |  | 
NCI-H1648 |  |  |  |  |  |  |  | 0.616 | 0.975 | 0.554 | 0.979 | 0.958 |  |  |  |  |  |  |  | 
NCI-H1703 | 0.24 | 0.261 | 0.251 |  | 0.687 | 0.717 | 0.627 | 0.392 | 0.225 | 0.243 | 0.216 | 0.201 |  |  |  |  |  | 0.25 | 0.214 | 0.723
NCI-H1793 | 0.388 | 0.436 | 0.323 |  |  |  |  | 1 | 0.715 | 0.874 | 0.793 | 1.05 | 0.393 | 0.4 | 0.415 | 0.358 | 0.328 | 0.251 | 0.341 | 
NCI-H2342 |  |  |  |  |  |  |  | 0.51 | 0.464 | 0.421 | 0.528 | 0.44 | 0.648 | 0.636 | 0.636 | 0.591 | 0.53 |  |  | 
SW 900 |  |  |  |  |  |  |  | 1.02 |  | 1.07 | 0.892 | 0.927 | 0.577 | 0.411 | 0.464 | 0.46 | 0.803 |  |  | 
